Laboratory results: patent US20070149535A1, “Protein kinase inhibitors” (ONCALIS AG, priority 2004, published 2007)

Experiments:
Experiment in all cases: Yeast growth assay, specificity profiling
Format in all cases: cell-based
Design in all cases: key: “−” indicates no growth restoration i.e. no activity against the particular kinase; “+”, “++”, and “+++” indicate activity detected by restoration of growth, classified into three categories of potency; “+”, “++”, and “+++” indicate activity detected by restoration of growth, classified into three categories of potency; “+”, “++”, and “+++” indicate activity detected by restoration of growth, classified into three categories of potency
Conditions in all cases: 7 concentrations between 0.2 and 100 μM
InsR = target: T1, InsR (Homo sapiens, UniProt P06213)
T1 construct: expressed in transfected cells; host or cells: yeast
Protocol: (§1) Specificity Profiling: Yeast Growth Assay
(§2) The yeast growth assay was performed as described in “Method for the identification and/or validation of receptor tyrosine kinase inhibitors” PCT/CH03/00694 (2004/10/24), section “Modes for Carrying out the Invention, Experiment 1 and Experiment 2.
(§3) Briefly, yeast cells carrying plasmids with the RTK of interest were grown in glucose containing medium (repressing expression). The cultures were diluted into galactose containing medium, which induces the expression of the kinase. Expression of the kinase inhibits growth of the yeast cells, which allows for positive selection of kinase inhibitors restoring growth of cells. Compounds were titrated at 7 concentrations between 0.2 and 100 μM.
(§4) Specificity profiling of compounds, using the yeast growth assay method described above. “−” indicates no growth restoration i.e. no activity against the particular kinase, “+”, “++”, and “+++” indicate activity detected by restoration of growth, classified into three categories of potency according to the maximal level of growth restoration reached and the concentration at which the maximal growth restoration is reached.

RET = target: T2, RET (Homo sapiens, UniProt P07949)
T2 construct: expressed in transfected cells; host or cells: yeast
Protocol: as §1, §2, §3, §4

EphB4 = target: T3, EphB4 (Homo sapiens, UniProt P54760)
T3 construct: expressed in transfected cells; host or cells: yeast
T3 sequence (P54760 16-987): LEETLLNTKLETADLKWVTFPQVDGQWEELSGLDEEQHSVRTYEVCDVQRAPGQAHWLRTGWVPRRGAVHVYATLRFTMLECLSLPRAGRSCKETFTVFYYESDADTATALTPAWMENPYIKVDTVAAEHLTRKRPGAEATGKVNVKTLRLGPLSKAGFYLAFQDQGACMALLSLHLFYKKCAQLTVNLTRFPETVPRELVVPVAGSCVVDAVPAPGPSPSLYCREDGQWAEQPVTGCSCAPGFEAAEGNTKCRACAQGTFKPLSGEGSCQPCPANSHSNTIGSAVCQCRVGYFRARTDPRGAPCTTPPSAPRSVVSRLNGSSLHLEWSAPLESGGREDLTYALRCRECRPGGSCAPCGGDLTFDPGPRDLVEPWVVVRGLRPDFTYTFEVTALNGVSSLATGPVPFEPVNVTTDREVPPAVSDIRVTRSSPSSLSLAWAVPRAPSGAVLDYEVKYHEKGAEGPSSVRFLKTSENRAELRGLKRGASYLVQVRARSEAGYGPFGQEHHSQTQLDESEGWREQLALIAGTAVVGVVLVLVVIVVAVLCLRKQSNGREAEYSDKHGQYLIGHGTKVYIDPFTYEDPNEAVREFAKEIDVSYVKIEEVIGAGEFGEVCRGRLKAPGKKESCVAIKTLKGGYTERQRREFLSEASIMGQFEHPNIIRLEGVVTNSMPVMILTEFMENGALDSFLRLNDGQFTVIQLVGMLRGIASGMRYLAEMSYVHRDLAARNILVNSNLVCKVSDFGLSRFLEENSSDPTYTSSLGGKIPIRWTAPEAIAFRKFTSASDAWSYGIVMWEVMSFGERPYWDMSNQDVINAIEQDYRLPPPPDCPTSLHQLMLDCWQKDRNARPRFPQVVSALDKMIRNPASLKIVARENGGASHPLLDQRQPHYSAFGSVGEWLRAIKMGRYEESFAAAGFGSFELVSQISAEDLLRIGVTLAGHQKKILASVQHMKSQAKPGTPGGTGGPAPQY
Protocol: as §1, §2, §3, §4

VEGFR2 = target: T4, VEGFR2 (Homo sapiens, UniProt P35968)
T4 construct: expressed in transfected cells; host or cells: yeast
Protocol: as §1, §2, §3, §4

VEGFR1 = target: T5, VEGFR1 (Homo sapiens, UniProt P17948)
T5 construct: expressed in transfected cells; host or cells: yeast
Protocol: as §1, §2, §3, §4

TEK = target: T6, TEK (Homo sapiens, UniProt Q02763)
T6 construct: expressed in transfected cells; host or cells: yeast
Protocol: as §1, §2, §3, §4

IGF-1R = target: T7, IGF-1R (Homo sapiens, UniProt P08069)
T7 construct: expressed in transfected cells; host or cells: yeast
Protocol: as §1, §2, §3, §4

T7 sequence (P08069 31-1367): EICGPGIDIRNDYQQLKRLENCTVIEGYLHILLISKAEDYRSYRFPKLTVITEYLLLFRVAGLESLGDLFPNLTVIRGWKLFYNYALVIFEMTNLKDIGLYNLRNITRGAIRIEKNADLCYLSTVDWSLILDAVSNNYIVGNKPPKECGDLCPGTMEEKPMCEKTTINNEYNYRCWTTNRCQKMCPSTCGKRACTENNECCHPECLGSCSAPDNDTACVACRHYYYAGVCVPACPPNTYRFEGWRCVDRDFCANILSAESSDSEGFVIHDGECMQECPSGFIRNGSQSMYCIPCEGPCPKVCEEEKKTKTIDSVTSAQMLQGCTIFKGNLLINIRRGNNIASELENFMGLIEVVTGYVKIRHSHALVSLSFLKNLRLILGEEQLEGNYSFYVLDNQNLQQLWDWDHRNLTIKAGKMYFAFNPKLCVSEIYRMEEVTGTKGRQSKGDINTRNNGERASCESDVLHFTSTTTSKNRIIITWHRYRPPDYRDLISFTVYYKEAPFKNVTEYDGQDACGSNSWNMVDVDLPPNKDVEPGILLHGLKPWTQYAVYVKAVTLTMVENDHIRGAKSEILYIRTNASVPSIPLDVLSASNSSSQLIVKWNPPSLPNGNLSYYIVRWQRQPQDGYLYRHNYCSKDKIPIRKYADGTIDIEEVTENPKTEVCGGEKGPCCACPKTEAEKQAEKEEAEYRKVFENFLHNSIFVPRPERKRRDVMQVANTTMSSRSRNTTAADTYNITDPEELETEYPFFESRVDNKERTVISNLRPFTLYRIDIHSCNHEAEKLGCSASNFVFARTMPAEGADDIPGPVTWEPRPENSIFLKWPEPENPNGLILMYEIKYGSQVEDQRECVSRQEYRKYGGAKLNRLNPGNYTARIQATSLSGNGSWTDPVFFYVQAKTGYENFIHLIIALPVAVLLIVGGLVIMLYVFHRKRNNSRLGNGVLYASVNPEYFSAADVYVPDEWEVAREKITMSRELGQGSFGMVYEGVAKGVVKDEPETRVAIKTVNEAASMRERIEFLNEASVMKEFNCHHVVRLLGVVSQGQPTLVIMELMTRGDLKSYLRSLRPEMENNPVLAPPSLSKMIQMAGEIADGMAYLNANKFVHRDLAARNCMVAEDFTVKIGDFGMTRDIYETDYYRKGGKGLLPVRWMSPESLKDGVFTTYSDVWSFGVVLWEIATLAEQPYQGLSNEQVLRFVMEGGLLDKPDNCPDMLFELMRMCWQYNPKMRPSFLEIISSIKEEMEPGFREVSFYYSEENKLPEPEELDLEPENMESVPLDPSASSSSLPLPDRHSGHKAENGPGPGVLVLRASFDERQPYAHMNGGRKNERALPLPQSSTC
T1 sequence (P06213 28-1382): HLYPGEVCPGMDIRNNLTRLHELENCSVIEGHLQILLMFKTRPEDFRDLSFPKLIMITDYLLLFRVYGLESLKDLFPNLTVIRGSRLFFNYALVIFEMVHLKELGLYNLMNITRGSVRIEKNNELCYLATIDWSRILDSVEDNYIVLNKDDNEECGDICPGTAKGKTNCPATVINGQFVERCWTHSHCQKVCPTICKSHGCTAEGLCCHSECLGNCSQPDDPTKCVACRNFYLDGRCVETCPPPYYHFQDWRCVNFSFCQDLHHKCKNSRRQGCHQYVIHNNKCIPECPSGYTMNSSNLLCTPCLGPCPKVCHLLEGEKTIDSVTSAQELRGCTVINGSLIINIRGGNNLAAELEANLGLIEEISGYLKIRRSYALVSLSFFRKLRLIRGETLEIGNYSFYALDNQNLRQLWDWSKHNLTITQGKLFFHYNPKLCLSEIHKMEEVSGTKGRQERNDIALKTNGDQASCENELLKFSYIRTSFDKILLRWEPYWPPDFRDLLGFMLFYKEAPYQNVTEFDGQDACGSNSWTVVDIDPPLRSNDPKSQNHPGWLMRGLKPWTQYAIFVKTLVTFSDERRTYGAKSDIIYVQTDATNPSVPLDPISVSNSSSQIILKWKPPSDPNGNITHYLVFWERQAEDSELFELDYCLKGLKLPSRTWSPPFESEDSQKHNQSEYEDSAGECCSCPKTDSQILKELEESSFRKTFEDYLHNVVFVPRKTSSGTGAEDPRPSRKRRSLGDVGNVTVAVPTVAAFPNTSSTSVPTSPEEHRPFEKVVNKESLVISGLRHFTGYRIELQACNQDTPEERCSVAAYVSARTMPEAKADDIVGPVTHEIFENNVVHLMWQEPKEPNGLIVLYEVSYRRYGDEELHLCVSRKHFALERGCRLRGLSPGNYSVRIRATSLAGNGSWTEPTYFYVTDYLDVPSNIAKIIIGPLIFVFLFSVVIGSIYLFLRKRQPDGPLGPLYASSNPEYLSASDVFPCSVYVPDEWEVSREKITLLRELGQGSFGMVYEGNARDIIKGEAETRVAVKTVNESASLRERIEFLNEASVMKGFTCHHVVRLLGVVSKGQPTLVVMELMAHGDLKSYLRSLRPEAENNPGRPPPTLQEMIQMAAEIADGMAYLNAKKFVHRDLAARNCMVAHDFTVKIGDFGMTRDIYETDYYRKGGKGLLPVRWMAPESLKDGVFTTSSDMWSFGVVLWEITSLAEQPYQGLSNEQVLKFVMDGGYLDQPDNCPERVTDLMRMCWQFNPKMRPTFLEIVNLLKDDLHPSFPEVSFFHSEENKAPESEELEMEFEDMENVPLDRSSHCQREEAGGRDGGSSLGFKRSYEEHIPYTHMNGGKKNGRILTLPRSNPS
T4 sequence (P35968 20-1356): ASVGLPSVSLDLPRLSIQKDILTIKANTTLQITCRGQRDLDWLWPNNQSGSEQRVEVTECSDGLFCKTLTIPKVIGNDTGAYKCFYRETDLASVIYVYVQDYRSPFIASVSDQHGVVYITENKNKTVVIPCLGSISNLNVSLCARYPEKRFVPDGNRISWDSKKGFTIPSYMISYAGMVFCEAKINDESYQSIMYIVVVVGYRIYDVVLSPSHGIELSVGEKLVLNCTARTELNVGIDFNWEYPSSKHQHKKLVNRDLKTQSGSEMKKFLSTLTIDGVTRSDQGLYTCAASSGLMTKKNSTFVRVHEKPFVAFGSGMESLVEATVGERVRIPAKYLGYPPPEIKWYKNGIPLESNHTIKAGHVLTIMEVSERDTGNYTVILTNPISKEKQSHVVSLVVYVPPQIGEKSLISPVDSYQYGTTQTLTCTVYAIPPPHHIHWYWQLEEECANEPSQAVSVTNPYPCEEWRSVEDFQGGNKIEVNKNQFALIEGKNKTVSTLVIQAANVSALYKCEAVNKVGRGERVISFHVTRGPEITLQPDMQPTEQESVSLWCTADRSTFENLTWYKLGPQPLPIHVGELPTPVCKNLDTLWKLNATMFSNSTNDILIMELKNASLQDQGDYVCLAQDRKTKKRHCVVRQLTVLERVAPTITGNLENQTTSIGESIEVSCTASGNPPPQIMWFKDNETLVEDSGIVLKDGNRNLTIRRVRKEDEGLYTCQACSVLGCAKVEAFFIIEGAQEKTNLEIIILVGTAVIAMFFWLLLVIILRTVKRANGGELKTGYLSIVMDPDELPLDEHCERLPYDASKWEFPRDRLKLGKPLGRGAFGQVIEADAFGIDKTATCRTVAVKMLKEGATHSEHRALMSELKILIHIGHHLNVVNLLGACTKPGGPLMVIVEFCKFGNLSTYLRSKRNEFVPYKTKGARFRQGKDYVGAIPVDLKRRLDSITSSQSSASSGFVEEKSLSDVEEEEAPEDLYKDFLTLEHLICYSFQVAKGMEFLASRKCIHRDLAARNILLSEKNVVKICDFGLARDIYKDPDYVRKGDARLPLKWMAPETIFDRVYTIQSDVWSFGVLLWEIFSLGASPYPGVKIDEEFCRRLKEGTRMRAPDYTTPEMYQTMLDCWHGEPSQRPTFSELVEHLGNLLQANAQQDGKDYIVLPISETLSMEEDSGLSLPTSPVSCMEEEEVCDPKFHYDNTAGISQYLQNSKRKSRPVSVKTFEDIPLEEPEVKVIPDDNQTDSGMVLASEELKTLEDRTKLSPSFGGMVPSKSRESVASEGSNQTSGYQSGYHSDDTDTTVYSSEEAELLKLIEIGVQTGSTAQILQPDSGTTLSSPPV
T6 sequence (Q02763 23-1124): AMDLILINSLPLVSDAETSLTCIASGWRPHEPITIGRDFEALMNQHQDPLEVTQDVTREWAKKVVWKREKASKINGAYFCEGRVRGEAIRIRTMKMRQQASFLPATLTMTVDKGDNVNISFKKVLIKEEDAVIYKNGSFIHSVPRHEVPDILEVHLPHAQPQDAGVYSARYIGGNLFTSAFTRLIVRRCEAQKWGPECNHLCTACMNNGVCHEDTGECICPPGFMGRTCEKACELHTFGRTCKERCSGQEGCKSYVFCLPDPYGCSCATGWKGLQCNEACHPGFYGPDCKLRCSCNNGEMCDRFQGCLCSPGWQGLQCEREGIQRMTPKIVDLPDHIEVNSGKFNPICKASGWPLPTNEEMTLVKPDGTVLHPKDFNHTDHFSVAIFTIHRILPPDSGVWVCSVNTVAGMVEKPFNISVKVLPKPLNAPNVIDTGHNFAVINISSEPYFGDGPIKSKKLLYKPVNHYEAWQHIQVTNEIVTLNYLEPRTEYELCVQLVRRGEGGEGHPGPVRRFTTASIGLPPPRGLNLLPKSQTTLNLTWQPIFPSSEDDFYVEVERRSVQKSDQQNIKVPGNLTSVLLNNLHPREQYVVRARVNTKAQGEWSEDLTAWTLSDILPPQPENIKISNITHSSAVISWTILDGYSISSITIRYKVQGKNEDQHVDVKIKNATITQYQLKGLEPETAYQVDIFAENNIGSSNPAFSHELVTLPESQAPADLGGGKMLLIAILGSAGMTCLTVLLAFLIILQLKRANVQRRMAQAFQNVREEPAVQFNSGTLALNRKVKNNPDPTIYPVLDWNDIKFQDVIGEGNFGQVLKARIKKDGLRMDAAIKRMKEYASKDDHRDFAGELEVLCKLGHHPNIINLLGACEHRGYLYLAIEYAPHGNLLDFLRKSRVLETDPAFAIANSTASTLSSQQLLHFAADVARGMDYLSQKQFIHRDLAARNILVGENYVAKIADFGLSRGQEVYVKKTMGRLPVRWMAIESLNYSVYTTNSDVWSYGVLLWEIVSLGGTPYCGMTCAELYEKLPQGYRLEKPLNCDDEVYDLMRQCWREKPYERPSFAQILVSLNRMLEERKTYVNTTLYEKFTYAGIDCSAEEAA

Structure (SMILES)	InsR growth restoration (InsR)	RET growth restoration (RET)	EphB4 growth restoration (EphB4)	VEGFR2 growth restoration (VEGFR2)	VEGFR1 growth restoration (VEGFR1)	TEK growth restoration (TEK)	IGF-1R growth restoration (IGF-1R)
Cc1cccc(Nc2c(-c3ccccc3)nc3cnccn23)c1 [compound 34, (2-Phenyl-imidazo[1,2-a]pyrazin-3-yl)-m-tolyl-amine]	−	−	+ −	−	−	−	−
Fc1ccc(Nc2c(-c3ccccc3)nc3cnccn23)cc1F [compound 30, (3,4-Difluoro-phenyl)-(2-phenyl-imidazo[1,2-a]pyrazin-3-yl)-amine]	−	−	++	−	−	−	−
Cc1cccc(Nc2c(-c3ccccc3)nc3c(C)nccn23)c1 [compound 43, (8-Methyl-2-phenyl-imidazo[1,2-a]pyrazin-3-yl)-m-tolyl-amine]	−	−	+++	−	−	−	−
COc1cccc(-c2nc3c(C)nccn3c2Nc2cccc(Cl)c2)c1 [compound 48, (3-Chloro-phenyl)-[2-(3-methoxy-phenyl)-8-methyl-imidazo[1,2-a]pyrazin-3-yl]-amine]	−	−	++	−	−	−	−
Cc1nccn2c(Nc3cccc(F)c3)c(-c3ccccc3)nc12 [compound 44, (3-Fluoro-phenyl)-(8-methyl-2-phenyl-imidazo[1,2-a]pyrazin-3-yl)-amine]	−	−	+++	−	−	−	−

Further lines, results first:

InsR growth restoration (InsR)	RET growth restoration (RET)	EphB4 growth restoration (EphB4)	VEGFR2 growth restoration (VEGFR2)	VEGFR1 growth restoration (VEGFR1)	TEK growth restoration (TEK)	IGF-1R growth restoration (IGF-1R)	Structure (SMILES)
−	−	++	−	−	−	−	Fc1cccc(Nc2c(-c3ccccc3)nc3cnccn23)c1 [compound 26, (3-Fluoro-phenyl)-(2-phenyl-imidazo[1,2-a]pyrazin-3-yl)-amine]
−	−	+++	−	−	−	−	Cc1nccn2c(Nc3ccc(F)c(F)c3)c(-c3ccccc3)nc12 [compound 45, (3,4-Difluoro-phenyl)-(8-methyl-2-phenyl-imidazo[1,2-a]pyrazin-3-yl)-amine]
−	+	+	−	−	−	−	Clc1ccc(Nc2c(-c3ccccc3)nc3cnccn23)cc1 [compound 16, (4-Chloro-phenyl)-(2-phenyl-imidazo[1,2-a]pyrazin-3-yl)-amine]
